Reference: the OPERA property sets (Mansouri et al. 2018)

SMILES | logP
CN(C)c1ccc(/[N+]([O-])=N/C#N)cc1 | 2.3
N#C/N=[N+](\[O-])c1cccc([N+](=O)[O-])c1 | 1.45
N#CN=[N+]([O-])c1ncccn1 | -0.13
N#CN=[N+]([O-])c1cccc(C(F)(F)F)c1 | 2.52
N#C/N=[N+](\[O-])c1cccc(F)c1 | 1.85
N#C/N=[N+](\[O-])c1ccc([N+](=O)[O-])cc1 | 1.51
N#C/N=[N+](\[O-])c1cccc(Cl)c1 | 2.4
Cc1cccc([N+]([O-])=NC#N)c1 | 2.49
N#CN=[N+]([O-])c1ccc(C(F)(F)F)cc1 | 2.47
N#CN=[N+]([O-])c1cnccn1 | 0.1
COc1ccc(/[N+]([O-])=N/C#N)cc1 | 2.15
N#C/N=[N+](\[O-])c1cccc(Br)c1 | 2.56
N#CN=[N+]([O-])c1cccc2ccccc12 | 3.17
COc1cccc(/[N+]([O-])=N/C#N)c1 | 2.24
N#CN=[N+]([O-])c1cccc(C#N)c1 | 1.15
N#C/N=[N+](\[O-])c1ccccn1 | 0.53
N#CN=[N+]([O-])c1ccc(C#N)cc1 | 1.18
N#CN=[N+]([O-])c1ccccc1 | 1.87
CCNc1nonc1N | 0.51
N#CN=[N+]([O-])c1ccnc2ccccc12 | 2.07
N#C/N=[N+](\[O-])c1ccc(Br)cc1 | 2.5
N#CN=[N+]([O-])c1ccc(F)cc1 | 1.8
Cc1ccc([N+]([O-])=NC#N)cc1 | 2.39
N#CN=[N+]([O-])c1ccc(Cl)cc1 | 2.33
